What was measured:
[1] = PET time activity curves in reference regions; assay type: in vivo, human; details: regions in marrow (ilium), muscle (gluteus), and bladder; remained constant throughout the imaging period
Description: (§1) Regions in marrow (ilium), muscle (gluteus), and bladder reached a plateau at 4.5 minutes that remained constant throughout the imaging period.
(§2) The time required for [^18F]-FACBC to accumulate in tumour cells in steps a) and c) of the aspects described above may be about 5 minutes or less after [^18F]-FACBC is administered. Optionally, the time taken for [^18F]-FACBC to accumulate is 3 to 5 minutes, for example 4 minutes. This therefore allows image acquisition to start 3 to 5 minutes after administration, for example 4 minutes after [^18F]-FACBC administration. […] Regions in marrow (ilium), muscle (gluteus), and bladder reached a plateau at 4.5 minutes that remained constant throughout the imaging period.

[2] = test system: known prostate carcinoma recurrence; experiment: PET time activity curves in prostate carcinoma recurrence; assay type: in vivo, human
Description: as §1, §2

[3] = human, in vivo
Description: FIGS. 1a and 1b show accumulation of FACBC in the Virchow's node when the FACBC is injected into the left arm.
In some embodiments, the right arm may be preferred as stasis in the axillary vein upon injection in the left arm may be misinterpreted as a metastatic lymph node called Virchow's node, which is located in the left supraclavicular fossa (the area above the left clavicle, or collar bone). For example, FIGS. 1a and 1b show accumulation of FACBC in the Virchow's node when the FACBC is injected into the left arm.

time at which plateau is reached [1]: 4.5 min | plateau of uptake lasts to ([2]; known prostate carcinoma recurrence, after the maximum): 30 min | gradual clearance ([2]; known prostate carcinoma recurrence, after the plateau, out to 60 minutes): 9 %/min | time of maximum uptake ([2]; rapid uptake in known prostate carcinoma recurrence): 4.5 min | standardized uptake value (SUV) [3]: > 200
SMILES: N[C@]1(C(=O)O)C[C@@H](F)C1 [fluciclovine, anti-1-amino-3-^18F-fluorocyclobutane-1-carboxylic acid]
